The values below come from ChEMBL document CHEMBL1201862, “PubChem BioAssay data set” (2004).

Some test systems named below: OVCAR-3; K562; NCI-H460; HOP-62; MCF7; SW-620; ACHN; RPMI-8226; MDA-MB-231; SK-MEL-2; HCT-15; OVCAR-8; SF-539; OVCAR-4; UACC-257; KM12; SNB-19; DU-145; CAKI-1; A498.
What all share (test): growth of human tumour cells (NCI), 48 h

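Test compounds were applied to cells in 96-well plates for 48 hours at 5 doses. GI50 = concentration required for 50% inhibition of growth.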 Calls of active or inactive are those of the source. Cut-off read from the data, not from the text of the source: active = GI50 up to about 1.1 µM and inactive = higher.

On to `O=C(Sc1c(-c2ccccc2)c(=O)n(-c2ccccc2)c(=S)n1-c1ccccc1)c1ccco1`, for which the GI50 with OVCAR-3 is 99.3 µM (inactive); in the assay on K562 it was 34 µM (inactive); in the assay on NCI-H460, > 100 µM (inactive); in the assay with HOP-62 it was > 100 µM (inactive); in the assay with MCF7 it was > 100 µM (inactive); with SW-620, > 57.5 µM (inactive). Also, the GI50 in the assay on ACHN is > 100 µM (inactive); in the assay on RPMI-8226, 33.8 µM (inactive); in the assay with MDA-MB-231 it was > 100 µM (inactive); with SK-MEL-2, > 100 µM (inactive); with HCT-15 it was over 89.1 µM; in the assay with OVCAR-8, > 100 µM (inactive). The GI50 was > 100 µM (inactive) in the assay on SF-539; > 100 µM (inactive) in the assay on OVCAR-4; > 31.6 µM (inactive) in the assay with UACC-257; > 100 µM (inactive) with KM12; > 100 µM (inactive) in the assay on SNB-19; > 100 µM (inactive) in the assay on DU-145. Moreover, the GI50 in the assay on CAKI-1 and in the assay with A498 was > 100 µM (inactive) in each case.

On to `O=C(CC(c1ccccc1)c1c(O)c2ccccc2oc1=O)c1ccccc1` (stereo not given), for which the GI50 in the assay with OVCAR-3 is 30.4 µM (inactive); with K562 it was 61.5 µM (inactive); in the assay on NCI-H460 it was 65.5 µM (inactive); in the assay with HOP-62 it was > 100 µM (inactive); in the assay with MCF7 it was > 85.9 µM (inactive); in the assay on SW-620, > 100 µM (inactive). The GI50 in the assay with ACHN was 98.4 µM (inactive); in the assay with RPMI-8226, 56.1 µM (inactive); in the assay with MDA-MB-231 it was > 100 µM (inactive); in the assay with SK-MEL-2, > 92.3 µM (inactive); in the assay on HCT-15, 78.9 µM; in the assay with OVCAR-8, > 100 µM (inactive). Moreover, the GI50 with SF-539 is > 100 µM (inactive); with OVCAR-4, 56.1 µM (inactive); with UACC-257 it was > 83.9 µM (inactive); with KM12 it was > 100 µM (inactive); with SNB-19 it was > 95.7 µM (inactive); with DU-145, > 89.1 µM (inactive). In addition, the results for the GI50 in the assay with CAKI-1 and in the assay on A498 were 21.2 µM (inactive) and > 61.9 µM (inactive), respectively.

`COc1ccc2c3c([nH]c2c1)CCN(CCCC(=O)c1ccc(F)cc1)C3`: the GI50 in the assay with OVCAR-3 was 18.8 µM (inactive); in the assay on K562, 16.6 µM (inactive); in the assay with NCI-H460, 19.4 µM (inactive); with HOP-62 it was 12.2 µM (inactive); in the assay with MCF7 it was 17.3 µM (inactive); in the assay on SW-620, 17 µM (inactive). Moreover, the GI50 with ACHN is 17.1 µM (inactive); in the assay with RPMI-8226, 16.7 µM (inactive); with MDA-MB-231, 15.8 µM (inactive); in the assay on SK-MEL-2 it was 17.5 µM (inactive); with HCT-15, 20.1 µM; with OVCAR-8, 15.6 µM (inactive). Further, the GI50 in the assay with SF-539 was 9.89 µM (inactive); with OVCAR-4, 16.8 µM (inactive); with UACC-257, 17.6 µM (inactive); in the assay on KM12, 19.7 µM (inactive); with SNB-19, 14.8 µM (inactive); in the assay with DU-145, 18.7 µM (inactive). The GI50 with CAKI-1 and with A498 was 16 µM (inactive) throughout.

Turning to `CC(=O)/C(=N\N=C(N)N)c1ccccc1`, the GI50 in the assay with OVCAR-3, in the assay on K562, with NCI-H460, with HOP-62, with MCF7 and in the assay with SW-620 was > 100 µM (inactive) in each case. Moreover, the GI50 is > 100 µM (inactive) in the assay on ACHN; > 100 µM (inactive) in the assay on RPMI-8226; > 100 µM (inactive) in the assay on MDA-MB-231; > 100 µM (inactive) in the assay with SK-MEL-2; over 100 µM in the assay with HCT-15; > 100 µM (inactive) in the assay on OVCAR-8. Moreover, the GI50 with SF-539, in the assay with OVCAR-4, in the assay on UACC-257, in the assay on KM12, in the assay with SNB-19 and in the assay on DU-145 was > 100 µM (inactive) throughout. Moreover, the GI50 in the assay on CAKI-1 and with A498 was > 100 µM (inactive) each time.

For `O=C1Nc2ccccc2SC1=C(C(=O)c1ccccc1)C(=O)c1ccccc1`, the GI50 was 12.3 µM (inactive) in the assay on OVCAR-3; 4.06 µM (inactive) in the assay on K562; 28.1 µM (inactive) with NCI-H460; 46.7 µM (inactive) with HOP-62; 34.9 µM (inactive) with MCF7; 34.6 µM (inactive) with SW-620. Besides, the GI50 was 42.1 µM (inactive) in the assay with ACHN; 28.8 µM (inactive) in the assay on RPMI-8226; 27.1 µM (inactive) in the assay with MDA-MB-231; 24.8 µM (inactive) with SK-MEL-2; 37.5 µM in the assay with HCT-15; 52.4 µM (inactive) with OVCAR-8. Further, the GI50 is 39.6 µM (inactive) in the assay with SF-539; 43.2 µM (inactive) in the assay on OVCAR-4; 33.3 µM (inactive) with UACC-257; 34 µM (inactive) in the assay with KM12; 41.2 µM (inactive) in the assay on SNB-19; 38.1 µM (inactive) in the assay with DU-145. For the same compound, the results for the GI50 with CAKI-1 and in the assay with A498 were 60.4 µM (inactive) and 32.4 µM (inactive), respectively.

`COc1ccc(-n2c(=O)n(C)c(=O)n2-c2c(C)c(C)c(C)c(C)c2C)cc1`: the GI50 in the assay with OVCAR-3, with K562, with NCI-H460, with HOP-62, in the assay on MCF7 and in the assay with SW-620 was > 100 µM (inactive) throughout. Moreover, the GI50 in the assay with ACHN is > 100 µM (inactive); with RPMI-8226 it was > 100 µM (inactive); in the assay on MDA-MB-231 it was > 100 µM (inactive); in the assay on SK-MEL-2, > 100 µM (inactive); with HCT-15, over 100 µM; with OVCAR-8, > 100 µM (inactive). The GI50 with SF-539, with OVCAR-4, in the assay with UACC-257, with KM12, in the assay with SNB-19 and in the assay on DU-145 was > 100 µM (inactive) throughout. In addition, the GI50 with CAKI-1 and in the assay on A498 was > 100 µM (inactive) each time.

With `COC(=O)C1(Cc2ccccc2)Cc2ccc3c(c2C1=O)CCC3` (stereo not given), the GI50 in the assay on OVCAR-3 was > 49 µM (inactive); with K562, 30.6 µM (inactive); in the assay with NCI-H460 it was 60.8 µM (inactive); in the assay with HOP-62 it was > 74.6 µM (inactive); with MCF7, 23.1 µM (inactive); in the assay with SW-620, > 60.4 µM (inactive). In addition, the GI50 in the assay with ACHN is 51.4 µM (inactive); in the assay with RPMI-8226, 25.4 µM (inactive); with MDA-MB-231 it was 33.4 µM (inactive); with SK-MEL-2 it was 18.1 µM (inactive); with HCT-15, 35 µM; with OVCAR-8, 59.6 µM (inactive). In addition, the GI50 with SF-539 is > 48.9 µM (inactive); with OVCAR-4, > 29.9 µM (inactive); in the assay with UACC-257, 35.2 µM (inactive); in the assay on KM12 it was 31.8 µM (inactive); with SNB-19, 55.2 µM (inactive); in the assay with DU-145 it was > 75.3 µM (inactive). In addition, the GI50 was 9.73 µM (inactive) in the assay with CAKI-1 and 35.4 µM (inactive) in the assay on A498.
